From patent US8822517B2, “Arylosulfonamides for the treatment of CNS diseases” (Adamed SP. Z O.O., priority 2010, dated 2014)

How the values were obtained:
[1] = target: T1, serotonine transporter (SERT) receptor (Homo sapiens, UniProt P31645); test: Binding assay SERT (h), [3H]imipramine, CHO cells; settings: read-out: SERT [%]
T1 construct: expressed in transfected cells; host or cells: CHO cells
Summary of the method: (§1)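 Total binding and binding under an excess of unlabelled competitor were both measured, the difference giving specific binding. Counts came from scintillation detection, and compound concentration was 1×10^−6 M.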

sigma σ receptor = test: Binding assay σ (non-selective), [3H]DTG, rat cerebral cortex; settings: percent inhibition of control specific binding; compounds tested at 1×10^−6 M
Summary of the method: as §1

adrenergic α1 receptor = test: Binding assay α1 (non-selective), [3H]prazosin, rat cerebral cortex; settings: percent inhibition of control specific binding; compounds tested at 1×10^−6 M
Summary of the method: as §1

muscarinic M3 receptor = target: T2, muscarinic M3 receptor (Homo sapiens, UniProt P20309); test: Binding assay M3 (h), [3H]4-DAMP, CHO cells; settings: read-out: M3 [%]
T2 construct: expressed in transfected cells; host or cells: CHO cells
Summary of the method: as §1

dopaminergic D2 receptor [2] = target: T3, dopaminergic D2 receptor (Homo sapiens, UniProt P14416); test: Cellular functional assay, dopaminergic D2 receptor (agonism/antagonism); type: cell-based; settings: HEK293; for activation at 1 µM: agonist effect, percent of control specific agonist response (3 μM dopamine for control), 1×10^−6 M, D2S (h), HEK-293 cells, read-out: D2-ag [%]; for inhibition at 1 µM: read-out: D2-antag. [%]
Description: (§2) The compounds were tested at the concentration of 1×10^−6M.
(§3) In the Tables ag refers to agonism, and antag to antagonism).
Target sequence in this assay (P14416 whole entry): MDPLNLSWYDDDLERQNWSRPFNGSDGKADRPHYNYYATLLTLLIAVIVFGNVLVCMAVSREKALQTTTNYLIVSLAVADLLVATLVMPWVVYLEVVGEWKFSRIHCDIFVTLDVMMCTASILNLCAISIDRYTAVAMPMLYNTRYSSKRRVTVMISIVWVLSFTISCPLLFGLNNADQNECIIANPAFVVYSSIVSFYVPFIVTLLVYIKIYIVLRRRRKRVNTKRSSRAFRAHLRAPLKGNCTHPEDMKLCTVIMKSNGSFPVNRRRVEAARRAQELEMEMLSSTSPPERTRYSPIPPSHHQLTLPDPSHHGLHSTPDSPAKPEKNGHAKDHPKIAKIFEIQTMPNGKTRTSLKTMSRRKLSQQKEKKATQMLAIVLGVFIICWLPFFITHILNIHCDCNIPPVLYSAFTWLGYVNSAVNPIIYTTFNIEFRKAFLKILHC

dopaminergic D3 receptor [3] = target: T4, dopaminergic D3 receptor (Homo sapiens, UniProt P35462); test: Cellular functional assay, dopaminergic D3 receptor (agonism/antagonism); type: cell-based; settings: for inhibition at 1 µM: CHO, read-out: D3-antag. [%]; for activation at 1 µM: agonist effect, percent of control specific agonist response (300 nM dopamine for control), 1×10^−6 M, D3 (h), CHO cells, read-out: D3-ag [%]
Description: as §2, §3

[4] = target: serotoninergic 5-HT2A receptor (Homo sapiens, UniProt P28223); test: Cellular functional assay, serotoninergic 5-HT2A receptor (agonism/antagonism); type: cell-based; settings: for activation at 1 µM: read-out: 5-HT2A -ag [%]; for inhibition at 1 µM: read-out: 5-HT2A -antag [%]
Summary of the method: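 Human receptors tested in cell-based functional format for both agonist and antagonist modes. Single compound concentration of 1×10^−6M.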

[5] = target: T5, serotoninergic 5-HT6 receptor (Homo sapiens, UniProt P50406); test: Cellular functional assay, serotoninergic 5-HT6 receptor (agonism/antagonism); type: cell-based; settings: for activation at 1 µM: agonist effect, percent of control specific agonist response, compounds tested at 1×10^−6M, read-out: 5-HT6-ag [%]; for inhibition at 1 µM: read-out: 5-HT6-antag. [%]
Description: as §2, §3

[6] = target: T6, serotoninergic 5-HT7 receptor (Homo sapiens, UniProt P34969); test: Cellular functional assay, serotoninergic 5-HT7 receptor (agonism/antagonism); type: cell-based; settings: for activation at 1 µM: agonist effect, percent of control specific agonist response, compounds tested at 1×10^−6M, read-out: 5-HT7-ag [%]; for inhibition at 1 µM: read-out: 5-HT7-antag. [%]
Description: as §2, §3

adrenergic α2C receptor [7] = target: T7, adrenergic α2C receptor (Homo sapiens, UniProt P18825); test: Cellular functional assay, adrenergic α2C receptor (agonism/antagonism); type: cell-based; settings: for activation at 1 µM: agonist effect, percent of control specific agonist response, compounds tested at 1×10^−6M, read-out: α2C −ag [%]; for inhibition at 1 µM: read-out: α2C −antag. [%]
T7 sequence (P18825 1-462): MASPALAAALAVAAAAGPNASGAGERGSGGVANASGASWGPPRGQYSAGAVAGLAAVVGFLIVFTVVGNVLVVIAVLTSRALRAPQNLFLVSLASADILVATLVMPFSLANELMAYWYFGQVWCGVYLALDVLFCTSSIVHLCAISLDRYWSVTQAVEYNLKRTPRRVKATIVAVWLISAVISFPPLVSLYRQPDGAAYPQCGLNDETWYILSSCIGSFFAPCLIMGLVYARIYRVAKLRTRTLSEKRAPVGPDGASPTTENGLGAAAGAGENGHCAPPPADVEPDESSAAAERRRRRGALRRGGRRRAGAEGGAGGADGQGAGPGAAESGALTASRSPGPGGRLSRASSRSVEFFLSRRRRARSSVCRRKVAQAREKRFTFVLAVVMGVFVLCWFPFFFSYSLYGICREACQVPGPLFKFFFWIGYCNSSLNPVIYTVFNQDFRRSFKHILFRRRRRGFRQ
Description: as §2, §3

[8] = target: T8, histaminergic H1 receptor (Homo sapiens, UniProt P35367); test: Cellular functional assay, histaminergic H1 receptor (agonism/antagonism); type: cell-based; settings: for activation at 1 µM: agonist effect, percent of control specific agonist response, compounds tested at 1×10^−6M, read-out: H1 -ag [%]; for inhibition at 1 µM: read-out: H1 -antag. [%]
Description: as §2, §3

dopaminergic D3 receptor [9] = target: T4, dopaminergic D3 receptor; test: Binding assay D3 (h), [3H]methyl-spiperone, CHO cells; set-up: expressed in transfected cells; host or cells: CHO cells; settings: read-out: D3 [%]
Summary of the method: as §1

[10] = target: T5, serotoninergic 5-HT6 receptor; test: Binding assay 5-HT6 (h), [3H]LSD, CHO cells; set-up: expressed in transfected cells; host or cells: CHO cells; settings: read-out: 5-HT6
Summary of the method: as §1

[11] = target: T6, serotoninergic 5-HT7 receptor; test: Binding assay 5-HT7 (h), [3H]LSD, CHO cells; set-up: expressed in transfected cells; host or cells: CHO cells; settings: read-out: 5-HT7
Summary of the method: as §1

adrenergic α2C receptor [12] = target: T7, adrenergic α2C receptor; test: Binding assay α2C (h), [3H]RX 821002, CHO cells; set-up: expressed in transfected cells; host or cells: CHO cells; settings: read-out: α2C [%]
Summary of the method: as §1

dopaminergic D2 receptor [13] = target: T3, dopaminergic D2 receptor; test: Binding assay D2S (h), [3H]methyl-spiperone, HEK-293 cells; set-up: expressed in transfected cells; host or cells: HEK-293 cells; settings: read-out: D2 [%]
Summary of the method: as §1
Target sequence in this assay (P14416 1-414 isoform P14416-2): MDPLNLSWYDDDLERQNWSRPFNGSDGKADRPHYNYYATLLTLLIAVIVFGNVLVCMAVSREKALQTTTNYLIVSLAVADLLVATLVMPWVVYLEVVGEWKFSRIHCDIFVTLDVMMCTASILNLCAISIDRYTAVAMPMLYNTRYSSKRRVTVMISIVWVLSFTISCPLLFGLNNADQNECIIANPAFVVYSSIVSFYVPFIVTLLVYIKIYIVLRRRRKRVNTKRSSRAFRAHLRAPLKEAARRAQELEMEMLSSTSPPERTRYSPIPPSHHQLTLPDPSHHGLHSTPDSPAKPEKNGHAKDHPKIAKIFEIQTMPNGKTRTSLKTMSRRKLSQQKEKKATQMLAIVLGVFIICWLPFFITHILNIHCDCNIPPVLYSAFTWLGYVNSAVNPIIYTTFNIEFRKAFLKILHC

[14] = target: T8, histaminergic H1 receptor; test: Binding assay H1 (h), [3H]pyrilamine, HEK-293 cells; set-up: expressed in transfected cells; host or cells: HEK-293 cells; settings: read-out: H1 [%]
Summary of the method: as §1

serotoninergic 5-HT2A receptor, sequence (P28223 whole entry): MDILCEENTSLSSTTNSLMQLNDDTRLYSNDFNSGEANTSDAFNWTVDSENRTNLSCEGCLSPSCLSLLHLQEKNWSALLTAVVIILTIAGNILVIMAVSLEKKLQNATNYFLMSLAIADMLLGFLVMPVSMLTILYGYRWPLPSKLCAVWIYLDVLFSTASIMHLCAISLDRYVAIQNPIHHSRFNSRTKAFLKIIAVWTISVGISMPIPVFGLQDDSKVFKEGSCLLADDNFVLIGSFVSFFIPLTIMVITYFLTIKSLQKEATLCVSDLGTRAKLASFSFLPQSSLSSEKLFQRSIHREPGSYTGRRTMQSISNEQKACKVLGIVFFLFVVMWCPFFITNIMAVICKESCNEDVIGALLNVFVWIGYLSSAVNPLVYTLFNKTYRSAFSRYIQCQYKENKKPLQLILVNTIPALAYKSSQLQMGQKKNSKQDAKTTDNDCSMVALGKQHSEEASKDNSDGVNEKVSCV
T5 sequence (P50406 whole entry): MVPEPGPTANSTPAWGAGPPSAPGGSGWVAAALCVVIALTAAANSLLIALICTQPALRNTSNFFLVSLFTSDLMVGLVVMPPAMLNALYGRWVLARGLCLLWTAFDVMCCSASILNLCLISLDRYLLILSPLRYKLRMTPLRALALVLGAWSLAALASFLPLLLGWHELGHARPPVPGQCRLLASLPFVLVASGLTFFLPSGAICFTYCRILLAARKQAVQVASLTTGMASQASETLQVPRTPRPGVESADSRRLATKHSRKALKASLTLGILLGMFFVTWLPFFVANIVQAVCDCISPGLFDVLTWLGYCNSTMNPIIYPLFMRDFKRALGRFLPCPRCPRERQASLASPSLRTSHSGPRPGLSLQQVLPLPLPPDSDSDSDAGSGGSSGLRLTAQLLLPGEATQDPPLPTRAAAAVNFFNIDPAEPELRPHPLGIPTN
T6 sequence (P34969 whole entry): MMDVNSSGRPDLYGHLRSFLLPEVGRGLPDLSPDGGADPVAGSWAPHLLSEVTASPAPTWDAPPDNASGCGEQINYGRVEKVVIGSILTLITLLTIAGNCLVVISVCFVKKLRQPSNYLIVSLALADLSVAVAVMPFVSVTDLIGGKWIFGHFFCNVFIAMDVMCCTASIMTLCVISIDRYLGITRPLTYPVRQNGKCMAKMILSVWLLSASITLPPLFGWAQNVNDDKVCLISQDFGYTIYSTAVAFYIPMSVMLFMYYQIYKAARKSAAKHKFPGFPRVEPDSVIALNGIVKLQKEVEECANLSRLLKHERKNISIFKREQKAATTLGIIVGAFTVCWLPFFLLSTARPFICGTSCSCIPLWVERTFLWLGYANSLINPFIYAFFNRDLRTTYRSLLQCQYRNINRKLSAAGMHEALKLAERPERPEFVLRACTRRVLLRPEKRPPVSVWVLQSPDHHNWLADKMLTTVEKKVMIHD
T2 sequence (P20309 whole entry): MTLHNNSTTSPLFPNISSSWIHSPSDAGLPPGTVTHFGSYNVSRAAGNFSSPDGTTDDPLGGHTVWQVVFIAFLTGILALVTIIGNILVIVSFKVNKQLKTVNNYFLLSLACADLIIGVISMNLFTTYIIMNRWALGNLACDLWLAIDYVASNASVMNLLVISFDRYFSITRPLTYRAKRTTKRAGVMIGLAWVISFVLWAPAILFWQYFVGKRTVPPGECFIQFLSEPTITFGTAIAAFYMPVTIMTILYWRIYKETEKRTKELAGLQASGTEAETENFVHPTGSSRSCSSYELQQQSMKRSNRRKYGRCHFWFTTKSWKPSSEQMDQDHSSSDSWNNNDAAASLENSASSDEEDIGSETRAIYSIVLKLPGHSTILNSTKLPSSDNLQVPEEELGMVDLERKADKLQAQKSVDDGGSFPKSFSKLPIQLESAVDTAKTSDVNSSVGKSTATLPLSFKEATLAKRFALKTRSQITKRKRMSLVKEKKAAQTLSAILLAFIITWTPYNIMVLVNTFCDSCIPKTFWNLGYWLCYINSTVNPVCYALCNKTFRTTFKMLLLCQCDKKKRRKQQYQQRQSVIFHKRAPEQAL
T4 sequence (P35462 whole entry): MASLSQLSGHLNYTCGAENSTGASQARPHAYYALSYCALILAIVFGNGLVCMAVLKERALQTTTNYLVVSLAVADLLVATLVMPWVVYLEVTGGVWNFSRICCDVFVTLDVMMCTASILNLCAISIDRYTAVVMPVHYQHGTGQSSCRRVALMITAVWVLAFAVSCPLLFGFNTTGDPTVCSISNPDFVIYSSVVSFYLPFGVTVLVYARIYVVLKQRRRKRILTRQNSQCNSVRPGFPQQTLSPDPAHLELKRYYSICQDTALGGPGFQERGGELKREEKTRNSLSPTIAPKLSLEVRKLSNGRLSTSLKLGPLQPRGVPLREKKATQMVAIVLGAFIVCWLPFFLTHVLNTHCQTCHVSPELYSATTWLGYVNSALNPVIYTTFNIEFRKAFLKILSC
T8 sequence (P35367 whole entry): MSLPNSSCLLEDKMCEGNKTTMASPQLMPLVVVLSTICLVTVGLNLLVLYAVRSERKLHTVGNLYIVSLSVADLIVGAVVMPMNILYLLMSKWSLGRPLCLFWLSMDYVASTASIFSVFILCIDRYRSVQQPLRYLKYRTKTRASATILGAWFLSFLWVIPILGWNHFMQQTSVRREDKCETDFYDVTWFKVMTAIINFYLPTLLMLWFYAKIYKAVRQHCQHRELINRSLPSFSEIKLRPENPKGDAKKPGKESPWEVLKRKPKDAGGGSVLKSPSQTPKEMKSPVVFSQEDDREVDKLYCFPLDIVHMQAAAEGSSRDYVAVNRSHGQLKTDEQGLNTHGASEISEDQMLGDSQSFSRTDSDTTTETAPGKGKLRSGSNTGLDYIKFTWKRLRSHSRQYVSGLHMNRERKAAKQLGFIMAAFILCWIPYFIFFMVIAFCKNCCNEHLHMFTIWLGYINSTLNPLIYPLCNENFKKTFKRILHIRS
T1 sequence (P31645 whole entry): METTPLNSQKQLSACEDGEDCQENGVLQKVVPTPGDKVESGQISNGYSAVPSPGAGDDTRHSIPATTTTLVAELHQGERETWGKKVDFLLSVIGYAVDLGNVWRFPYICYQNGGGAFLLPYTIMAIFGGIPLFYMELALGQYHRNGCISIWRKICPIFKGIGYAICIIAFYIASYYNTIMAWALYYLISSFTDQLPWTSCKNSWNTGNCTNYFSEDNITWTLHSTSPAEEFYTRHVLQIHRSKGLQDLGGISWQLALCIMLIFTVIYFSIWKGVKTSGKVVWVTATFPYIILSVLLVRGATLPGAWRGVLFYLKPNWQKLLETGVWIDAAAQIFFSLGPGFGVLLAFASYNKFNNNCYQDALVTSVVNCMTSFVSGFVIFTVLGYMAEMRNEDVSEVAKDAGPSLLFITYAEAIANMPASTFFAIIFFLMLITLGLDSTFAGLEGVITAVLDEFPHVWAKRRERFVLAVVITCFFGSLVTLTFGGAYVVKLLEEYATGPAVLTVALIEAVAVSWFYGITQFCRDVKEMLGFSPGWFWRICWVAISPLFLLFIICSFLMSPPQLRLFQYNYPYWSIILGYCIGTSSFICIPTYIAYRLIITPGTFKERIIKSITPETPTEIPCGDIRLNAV

SMILES | inhibition at 1 µM [1] | σ [%] (sigma σ receptor) | α1 [%] (adrenergic α1 receptor) | inhibition at 1 µM (muscarinic M3 receptor) | activation at 1 µM (dopaminergic D2 receptor [2]) | inhibition at 1 µM (dopaminergic D2 receptor [2]) | inhibition at 1 µM (dopaminergic D3 receptor [3]) | activation at 1 µM (dopaminergic D3 receptor [3]) | activation at 1 µM [4] | inhibition at 1 µM [4] | activation at 1 µM [5] | inhibition at 1 µM [5] | activation at 1 µM [6] | inhibition at 1 µM [6] | activation at 1 µM (adrenergic α2C receptor [7]) | inhibition at 1 µM (adrenergic α2C receptor [7]) | activation at 1 µM [8] | inhibition at 1 µM [8] | inhibition at 1 µM (dopaminergic D3 receptor [9]) | inhibition at 1 µM [10] | further results
Cc1cccc(S(=O)(=O)NCCCN2CCN(c3nsc4ccccc34)CC2)c1 [Compound 7, N-(3-(4-(1,2-Benzothiazol-3-yl)piperazin-1-yl)propyl)-3-methylbenzenesulphonamide] | 88% | 61% | 98% | 13% | 0% | 91% | 66% | -21% | 0% | 100% | 1% | 65% | -1% | 98% | -6% | 2% | 1% | 70% | 97% | 98% | inhibition at 1 µM [11]: 97%; inhibition at 1 µM (adrenergic α2C receptor [12]): 96%; inhibition at 1 µM (dopaminergic D2 receptor [13]): 95%; inhibition at 1 µM [14]: 93%
O=c1[nH]c2ccc(S(=O)(=O)NCCCN3CCN(c4nsc5ccccc45)CC3)cc2o1 [Compound 8, N-(3-(4-(1,2-Benzothiazol-3-yl)piperazin-1-yl)propyl)-2-oxo-3H-1,3-benzoxazole-6-sulphonamide] | 63% | 17% | 94% | -11% | 7% | 85% | 73% | -24% | -2% | 99% | -1% | 64% | -1% | 82% | -16% | 1% | 1% | 98% | 97% | 91% | inhibition at 1 µM [11]: 97%; inhibition at 1 µM (adrenergic α2C receptor [12]): 93%; inhibition at 1 µM (dopaminergic D2 receptor [13]): 98%; inhibition at 1 µM [14]: 97%
O=S(=O)(NCCCCN1CCN(c2nsc3ccccc23)CC1)c1ccc2cc(Cl)ccc2c1 [Compound 61, N-[4-[4-(1,2-Benzothiazol-3-yl)piperazin-1-yl]butyl]-6-chloro-naphthalene-2-sulphonamide] | 55% | 46% | 94% | 5% | 4% | 77% | 45% | 4% | 0% | 97% | -2% | 72% | -1% | 78% | 1% | 18% | 1% | 76% | 96% | 96% | inhibition at 1 µM [11]: 100%; inhibition at 1 µM (adrenergic α2C receptor [12]): 101%; inhibition at 1 µM (dopaminergic D2 receptor [13]): 100%; inhibition at 1 µM [14]: 97%
O=S(=O)(NCCCCN1CCN(c2noc3ccccc23)CC1)c1ccc2cc(Cl)ccc2c1 [Compound 79, N-[4-[4-(1,2-Benzoxazol-3-yl)piperazin-1-yl]butyl]-6-chloro-naphthalene-2-sulphonamide] | 3% | 37% | 88% | 12% | 3% | 77% | 77% | -9% | -2% | 97% | 1% | 76% | -2% | 97% | 7% | 22% | 0% | 57% | 96% | 97% | inhibition at 1 µM [11]: 97%; inhibition at 1 µM (adrenergic α2C receptor [12]): 106%; inhibition at 1 µM (dopaminergic D2 receptor [13]): 99%; inhibition at 1 µM [14]: 96%
Cc1c(S(=O)(=O)NCCCCN2CCN(c3noc4ccccc34)CC2)sc2ccc(F)cc12 [Compound 81, N-[4-[4-(1,2-Benzoxazol-3-yl)piperazin-1-yl]butyl]-5-fluoro-3-methylbenzothiophene-2-sulphonamide] | 28% | 59% | 96% | 6% | 4% | 73% | 76% | -10% | -1% | 95% | 1% | 88% | -2% | 98% | 9% | 20% | 1% | 38% | 97% | 98% | inhibition at 1 µM [11]: 99%; inhibition at 1 µM (adrenergic α2C receptor [12]): 106%; inhibition at 1 µM (dopaminergic D2 receptor [13]): 90%; inhibition at 1 µM [14]: 93%
O=S(=O)(NCCCCN1CCC(c2noc3cc(F)ccc23)CC1)c1ccc2cc(Cl)ccc2c1 [Compound 97, 6-Chloro-N-[4-[4-(6-fluoro-1,2-benzoxazol-3-yl)piperidin-1-yl]butyl]naphthalene-2-sulphonamide] | 61% | 55% | 98% | 16% | 4% | 95% | 87% | -23% | -3% | 102% | -2% | 95% | -2% | 100% | -4% | 36% | 3% | 57% | 100% | 98% | inhibition at 1 µM [11]: 93%; inhibition at 1 µM (adrenergic α2C receptor [12]): 100%; inhibition at 1 µM (dopaminergic D2 receptor [13]): 100%; inhibition at 1 µM [14]: 91%
